From US8192962B2, “Processes for detecting toxic substances” (Daikin Industries, Ltd., priority 2001, dated 2012)

System: Stress protein genes
Experiment: DNA chip mRNA expression in yeast, stress protein genes (Table 6)
Format: cell-based, Saccharomyces cerevisiae S288C
Description: Yeast (Saccharomyces cerevisiae S288C (α SUC2mal mel gap2 CUP1)) were incubated at 25° C. on YPD medium (yeast extract 1%, polypepton 2%, glucose 2%). One of toxic chemical substances was added to the cells at logarithmic growth phase, and the cells were further incubated for two hours. Cells were cultured without any chemical substance in the same condition, and were used as control. Concentrations of the chemical substances were defined to inhibit the growth of the yeast but not lead to death.
After completion of the incubation, the culture was centrifuged to collect the cells. To the cells, sodium acetate buffer (50 mM sodium acetate, 10 mM EDTA, 1% SDS) was added, and the mixture was shaken at 65° C. for five minutes, followed by returning to room temperature, and obtaining the supernatant, of which the procedures were repeated two times. To the supernatant, ½ amount of a solution of phenol/chloroform was added, and the mixture was centrifuged to give a supernatant, which was added with an equal amount of chloroform, and the mixture was centrifuged to give a supernatant. To the supernatant, an equal amount of isopropanol containing 0.3 M sodium acetate was added, and the mixture was allowed to stand at room temperature for 30 minutes, after which the mixture was centrifuged to give a sediment of the whole RNAs. Seventy % ethanol was added to the sediment, and the mixture was again centrifuged to give a sediment, which was then dried and dissolved in water. mRNA was isolated from the whole RNAs as followings. In view of the fact that a poly A chain is attached to the 3′ terminus of mRNA, a polynucleotide having a poly T structure which was immobilized on the surface of latex beads was used to trap the mRNA, and then the mRNA was washed and eluted with spine column (Oligotex-dT30<Super>mRNA Purification Kit, Takara). Reverse transcription of the mRNA was conducted with a reverse transcriptase (Super Script II Reverse Transcriptase; catalogue No. 18064-014, GibcoBRL) using fluorescence-labeled nucleotides to give cDNAs that were introduced with Cy3-dUTP or Cy5-dUTP during the reverse transcription.
The labeled cDNAs were dissolved in TE buffer (10mM Tris-HCl/1 mM EDTA, pH8.0), and the solution was dropped on the DNA chip containing the whole genes of yeast (DNA Chip Research Inc. Japan) so that the cDNAs were hybridized on the DNA chip at 65° C. for over 12 hours. The fluoresces intensity of the DNA chip was read with a scanner, and the ratio relative to the fluorescence intensity resulting from the absence of chemical substance was estimated as the following, which is shown in Tables 1 to 9: […]

Compound: C[S+](C)[O-] [(15), dimethylsulfoxide]
- The level of expressed mRNA in the presence of chemical substance/The level of expressed mRNA in the absence of chemical substance (yeast gene YAL015C): 0.7
- The level of expressed mRNA in the presence of chemical substance/The level of expressed mRNA in the absence of chemical substance (yeast gene YBR044C): 0.9
- The level of expressed mRNA in the presence of chemical substance/The level of expressed mRNA in the absence of chemical substance (yeast gene YBR054W): 0.6
- The level of expressed mRNA in the presence of chemical substance/The level of expressed mRNA in the absence of chemical substance (yeast gene YBR067C): 3.3
- The level of expressed mRNA in the presence of chemical substance/The level of expressed mRNA in the absence of chemical substance (yeast gene YBR072W): 4.9
- The level of expressed mRNA in the presence of chemical substance/The level of expressed mRNA in the absence of chemical substance (yeast gene YBR126C): 1.0
- The level of expressed mRNA in the presence of chemical substance/The level of expressed mRNA in the absence of chemical substance (yeast gene YBR169C): 1.6
- The level of expressed mRNA in the presence of chemical substance/The level of expressed mRNA in the absence of chemical substance (yeast gene YCR083W): 1.0
- The level of expressed mRNA in the presence of chemical substance/The level of expressed mRNA in the absence of chemical substance (yeast gene YDL022W): 0.9
- The level of expressed mRNA in the presence of chemical substance/The level of expressed mRNA in the absence of chemical substance (yeast gene YDL025C): 1.0
- The level of expressed mRNA in the presence of chemical substance/The level of expressed mRNA in the absence of chemical substance (yeast gene YDR033W): 0.8
- The level of expressed mRNA in the presence of chemical substance/The level of expressed mRNA in the absence of chemical substance (yeast gene YDR077W): 6.1
- The level of expressed mRNA in the presence of chemical substance/The level of expressed mRNA in the absence of chemical substance (yeast gene YDR098C): 2.2
- The level of expressed mRNA in the presence of chemical substance/The level of expressed mRNA in the absence of chemical substance (yeast gene YDR155C): 2.5
- The level of expressed mRNA in the presence of chemical substance/The level of expressed mRNA in the absence of chemical substance (yeast gene YDR258C): 0.6
- The level of expressed mRNA in the presence of chemical substance/The level of expressed mRNA in the absence of chemical substance (yeast gene YDR293C): 1.7
- The level of expressed mRNA in the presence of chemical substance/The level of expressed mRNA in the absence of chemical substance (yeast gene YDR436W): 0.8
- The level of expressed mRNA in the presence of chemical substance/The level of expressed mRNA in the absence of chemical substance (yeast gene YDR513W): 1.3
- The level of expressed mRNA in the presence of chemical substance/The level of expressed mRNA in the absence of chemical substance (yeast gene YDR519W): 2.0
- The level of expressed mRNA in the presence of chemical substance/The level of expressed mRNA in the absence of chemical substance (yeast gene YEL030W): 0.8
- The level of expressed mRNA in the presence of chemical substance/The level of expressed mRNA in the absence of chemical substance (yeast gene YEL039C): 0.4
- The level of expressed mRNA in the presence of chemical substance/The level of expressed mRNA in the absence of chemical substance (yeast gene YER042W): 1.0
- The level of expressed mRNA in the presence of chemical substance/The level of expressed mRNA in the absence of chemical substance (yeast gene YER057C): 1.7
- The level of expressed mRNA in the presence of chemical substance/The level of expressed mRNA in the absence of chemical substance (yeast gene YER125W): 0.8
- The level of expressed mRNA in the presence of chemical substance/The level of expressed mRNA in the absence of chemical substance (yeast gene YFL014W): 6.3
- The level of expressed mRNA in the presence of chemical substance/The level of expressed mRNA in the absence of chemical substance (yeast gene YFL016C): 0.8
- The level of expressed mRNA in the presence of chemical substance/The level of expressed mRNA in the absence of chemical substance (yeast gene YFL020C): 1.4
- The level of expressed mRNA in the presence of chemical substance/The level of expressed mRNA in the absence of chemical substance (yeast gene YFR052W): 1.4
- The level of expressed mRNA in the presence of chemical substance/The level of expressed mRNA in the absence of chemical substance (yeast gene YGL073W): 0.9
- The level of expressed mRNA in the presence of chemical substance/The level of expressed mRNA in the absence of chemical substance (yeast gene YGL115W): 0.7
- The level of expressed mRNA in the presence of chemical substance/The level of expressed mRNA in the absence of chemical substance (yeast gene YGL181W): 1.5
- The level of expressed mRNA in the presence of chemical substance/The level of expressed mRNA in the absence of chemical substance (yeast gene YGR088W): 0.7
- The level of expressed mRNA in the presence of chemical substance/The level of expressed mRNA in the absence of chemical substance (yeast gene YHL028W): 0.6
- The level of expressed mRNA in the presence of chemical substance/The level of expressed mRNA in the absence of chemical substance (yeast gene YHL046C): 1.0
- The level of expressed mRNA in the presence of chemical substance/The level of expressed mRNA in the absence of chemical substance (yeast gene YHR057C): 1.2
- The level of expressed mRNA in the presence of chemical substance/The level of expressed mRNA in the absence of chemical substance (yeast gene YHR104W): 1.6
- The level of expressed mRNA in the presence of chemical substance/The level of expressed mRNA in the absence of chemical substance (yeast gene YIL011W): 0.9
- The level of expressed mRNA in the presence of chemical substance/The level of expressed mRNA in the absence of chemical substance (yeast gene YIL033C): 1.0
- The level of expressed mRNA in the presence of chemical substance/The level of expressed mRNA in the absence of chemical substance (yeast gene YIR037W): 1.0
- The level of expressed mRNA in the presence of chemical substance/The level of expressed mRNA in the absence of chemical substance (yeast gene YIR038C): 1.2
- The level of expressed mRNA in the presence of chemical substance/The level of expressed mRNA in the absence of chemical substance (yeast gene YJL128C): 1.2
- The level of expressed mRNA in the presence of chemical substance/The level of expressed mRNA in the absence of chemical substance (yeast gene YJL158C): 1.7
- The level of expressed mRNA in the presence of chemical substance/The level of expressed mRNA in the absence of chemical substance (yeast gene YJL165C): 1.0
- The level of expressed mRNA in the presence of chemical substance/The level of expressed mRNA in the absence of chemical substance (yeast gene YJR045C): 2.3
- The level of expressed mRNA in the presence of chemical substance/The level of expressed mRNA in the absence of chemical substance (yeast gene YJR090C): 1.6
- The level of expressed mRNA in the presence of chemical substance/The level of expressed mRNA in the absence of chemical substance (yeast gene YKL161C): 1.3
- The level of expressed mRNA in the presence of chemical substance/The level of expressed mRNA in the absence of chemical substance (yeast gene YKL164C): 1.2
- The level of expressed mRNA in the presence of chemical substance/The level of expressed mRNA in the absence of chemical substance (yeast gene YKL210W): 1.0
- The level of expressed mRNA in the presence of chemical substance/The level of expressed mRNA in the absence of chemical substance (yeast gene YKR053C): 0.3
- The level of expressed mRNA in the presence of chemical substance/The level of expressed mRNA in the absence of chemical substance (yeast gene YLL024C): 1.3
- The level of expressed mRNA in the presence of chemical substance/The level of expressed mRNA in the absence of chemical substance (yeast gene YLL026W): 0.9
- The level of expressed mRNA in the presence of chemical substance/The level of expressed mRNA in the absence of chemical substance (yeast gene YLL060C): 1.5
- The level of expressed mRNA in the presence of chemical substance/The level of expressed mRNA in the absence of chemical substance (yeast gene YLR006C): 0.9
- The level of expressed mRNA in the presence of chemical substance/The level of expressed mRNA in the absence of chemical substance (yeast gene YLR109W): 3.9
- The level of expressed mRNA in the presence of chemical substance/The level of expressed mRNA in the absence of chemical substance (yeast gene YML007W): 1.0
- The level of expressed mRNA in the presence of chemical substance/The level of expressed mRNA in the absence of chemical substance (yeast gene YML070W): 0.9
- The level of expressed mRNA in the presence of chemical substance/The level of expressed mRNA in the absence of chemical substance (yeast gene YMR021C): 1.0
- The level of expressed mRNA in the presence of chemical substance/The level of expressed mRNA in the absence of chemical substance (yeast gene YMR173W): 2.5
- The level of expressed mRNA in the presence of chemical substance/The level of expressed mRNA in the absence of chemical substance (yeast gene YMR186W): 1.3
- The level of expressed mRNA in the presence of chemical substance/The level of expressed mRNA in the absence of chemical substance (yeast gene YNL064C): 0.7
- The level of expressed mRNA in the presence of chemical substance/The level of expressed mRNA in the absence of chemical substance (yeast gene YNL160W): 0.7
- The level of expressed mRNA in the presence of chemical substance/The level of expressed mRNA in the absence of chemical substance (yeast gene YNR076W): 1.1
- The level of expressed mRNA in the presence of chemical substance/The level of expressed mRNA in the absence of chemical substance (yeast gene YOL064C): 1.0
- The level of expressed mRNA in the presence of chemical substance/The level of expressed mRNA in the absence of chemical substance (yeast gene YOL161C): 1.1
- The level of expressed mRNA in the presence of chemical substance/The level of expressed mRNA in the absence of chemical substance (yeast gene YOR008C): 0.9
- The level of expressed mRNA in the presence of chemical substance/The level of expressed mRNA in the absence of chemical substance (yeast gene YOR009W): 0.6
- The level of expressed mRNA in the presence of chemical substance/The level of expressed mRNA in the absence of chemical substance (yeast gene YOR010C): 0.6
- The level of expressed mRNA in the presence of chemical substance/The level of expressed mRNA in the absence of chemical substance (yeast gene YOR027W): 1.4
- The level of expressed mRNA in the presence of chemical substance/The level of expressed mRNA in the absence of chemical substance (yeast gene YPL059W): 1.0
- The level of expressed mRNA in the presence of chemical substance/The level of expressed mRNA in the absence of chemical substance (yeast gene YPL106C): 1.1
- The level of expressed mRNA in the presence of chemical substance/The level of expressed mRNA in the absence of chemical substance (yeast gene YPL140C): 0.7
- The level of expressed mRNA in the presence of chemical substance/The level of expressed mRNA in the absence of chemical substance (yeast gene YPL194W): 1.4
- The level of expressed mRNA in the presence of chemical substance/The level of expressed mRNA in the absence of chemical substance (yeast gene YPL223C): 1.5
- The level of expressed mRNA in the presence of chemical substance/The level of expressed mRNA in the absence of chemical substance (yeast gene YPL240C): 1.2
- The level of expressed mRNA in the presence of chemical substance/The level of expressed mRNA in the absence of chemical substance (yeast gene YPR005C): 2.7
